Experimental data published in PMC4335978, “Regulation of nitrite resistance of the cytochrome cbb3 oxidase by cytochrome c ScyA in Shewanella oneidensis” (MicrobiologyOpen, 2014).

Experiments:
[1] = molecular target: T1, bd oxidase (cytochrome bd) (Shewanella oneidensis, UniProt Q8EC58); assay: oxygen consumption (O2 electrode), membranes of Δcco strain; format: biochemical; conditions: ~70 μmol/L O2; ubiquinol-1 as electron donor; no added ScyA
T1 construct: gene cydA; native cydABX complex in membrane preparations of S. oneidensis Δcco strain (cbb3 oxidase absent), not purified, no tag; with Cytochrome bd ubiquinol oxidase subunit II CydB; Cytochrome bd oxidase small subunit CydX
T1 sequence (Q8EC58 1-518): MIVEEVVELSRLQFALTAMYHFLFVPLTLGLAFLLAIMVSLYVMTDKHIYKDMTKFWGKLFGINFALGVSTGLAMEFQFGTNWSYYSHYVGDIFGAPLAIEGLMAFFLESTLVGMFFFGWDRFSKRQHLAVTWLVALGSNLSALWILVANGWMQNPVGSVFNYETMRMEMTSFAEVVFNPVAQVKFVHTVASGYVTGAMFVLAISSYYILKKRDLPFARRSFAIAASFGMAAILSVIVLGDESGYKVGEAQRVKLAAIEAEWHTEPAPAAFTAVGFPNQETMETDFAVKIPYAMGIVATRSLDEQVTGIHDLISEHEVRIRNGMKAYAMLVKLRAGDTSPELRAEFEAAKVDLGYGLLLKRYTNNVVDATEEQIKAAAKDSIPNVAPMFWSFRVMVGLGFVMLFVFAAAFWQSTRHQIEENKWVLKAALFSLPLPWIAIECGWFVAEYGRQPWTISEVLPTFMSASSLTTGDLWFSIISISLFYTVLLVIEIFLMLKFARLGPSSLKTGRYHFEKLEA
T1 sequence (Q8EC59 1-379 partner): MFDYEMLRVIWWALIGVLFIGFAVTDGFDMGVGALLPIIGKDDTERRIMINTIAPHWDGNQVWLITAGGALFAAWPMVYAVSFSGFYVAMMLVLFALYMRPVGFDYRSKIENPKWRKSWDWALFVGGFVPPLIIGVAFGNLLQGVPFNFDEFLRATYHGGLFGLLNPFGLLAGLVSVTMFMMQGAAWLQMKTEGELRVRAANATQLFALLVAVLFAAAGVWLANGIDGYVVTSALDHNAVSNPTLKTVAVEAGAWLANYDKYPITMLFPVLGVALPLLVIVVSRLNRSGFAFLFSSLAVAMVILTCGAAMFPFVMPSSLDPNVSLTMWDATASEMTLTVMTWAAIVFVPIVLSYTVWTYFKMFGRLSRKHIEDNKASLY
T1 sequence (Q8EC60 1-38 partner): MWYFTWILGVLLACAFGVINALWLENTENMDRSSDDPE

[2] = molecular target: T2, cbb3-HCO (cytochrome cbb3 oxidase) (Shewanella oneidensis, UniProt Q8EEL5); assay: oxygen consumption (O2 electrode), membranes of Δcyd strain; format: biochemical; conditions: ~70 μmol/L O2; ascorbate + TMPD as electron donor; no added ScyA
T2 construct: gene ccoN; native ccoNOQP complex in membrane preparations of S. oneidensis Δcyd strain (bd oxidase absent), not purified, no tag; with Cbb3-type cytochrome c oxidase subunit II CcoO; Cbb3-type cytochrome c oxidase subunit III CcoP; Cbb3-type cytochrome c oxidase subunit IV CcoQ
T2 sequence (Q8EEL5 1-478): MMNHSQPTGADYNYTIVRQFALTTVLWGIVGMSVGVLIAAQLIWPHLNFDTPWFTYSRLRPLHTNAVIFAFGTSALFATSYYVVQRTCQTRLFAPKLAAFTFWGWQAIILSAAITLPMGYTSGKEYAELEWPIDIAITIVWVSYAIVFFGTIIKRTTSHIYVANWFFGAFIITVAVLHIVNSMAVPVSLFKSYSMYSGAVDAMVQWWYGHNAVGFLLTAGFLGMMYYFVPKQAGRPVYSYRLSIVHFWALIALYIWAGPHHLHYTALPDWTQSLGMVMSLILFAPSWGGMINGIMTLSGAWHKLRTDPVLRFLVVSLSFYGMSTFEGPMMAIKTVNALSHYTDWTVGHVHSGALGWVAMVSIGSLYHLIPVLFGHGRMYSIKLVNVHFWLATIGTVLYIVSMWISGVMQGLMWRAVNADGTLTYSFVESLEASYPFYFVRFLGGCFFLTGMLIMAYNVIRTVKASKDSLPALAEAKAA
T2 sequence (Q8EEL6 1-208 partner): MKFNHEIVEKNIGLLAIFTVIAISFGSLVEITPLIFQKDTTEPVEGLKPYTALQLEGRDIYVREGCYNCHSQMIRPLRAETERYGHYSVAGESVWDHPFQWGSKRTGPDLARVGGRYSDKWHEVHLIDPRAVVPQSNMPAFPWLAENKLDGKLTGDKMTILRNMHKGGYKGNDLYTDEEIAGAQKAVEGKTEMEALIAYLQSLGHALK
T2 sequence (Q8EEL8 1-322 partner): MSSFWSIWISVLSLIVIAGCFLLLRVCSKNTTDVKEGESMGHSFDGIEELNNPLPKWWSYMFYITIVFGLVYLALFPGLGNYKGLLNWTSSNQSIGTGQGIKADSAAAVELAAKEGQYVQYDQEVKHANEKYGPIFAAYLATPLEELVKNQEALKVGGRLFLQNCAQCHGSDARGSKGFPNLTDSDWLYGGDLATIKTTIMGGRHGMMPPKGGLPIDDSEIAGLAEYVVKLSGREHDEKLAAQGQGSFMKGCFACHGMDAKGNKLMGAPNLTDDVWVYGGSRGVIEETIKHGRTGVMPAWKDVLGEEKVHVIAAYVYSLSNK
T2 sequence (Q8EEL7 1-58 partner): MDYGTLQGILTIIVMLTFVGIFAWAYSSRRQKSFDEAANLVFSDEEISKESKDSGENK

SMILES: O=NO [nitrite]
- IC50 [1]: ~180 nM
- IC50 [2]: ~50 nM
